The data set is described as follows: log P determination by HPLC on reversed-phase column (C18), EEC Directive 79/831 Annex V.A8, acidic (formic acid). Type of data set: physicochemical. Particulars: HPLC method a), acetonitrile/water with formic acid. As for the experimental part:
^1 The stated mass is the peak of the isotope pattern of the [M+H]^+ ion of the highest intensity; if the [M-H]^- ion was detected, the stated mass is identified with ^2. ^2 The stated mass is the peak of the isotope pattern of the [M-H]^- ion of the highest intensity. ^a) Note regarding the determination of the log P values and mass detection: The determination of the given log P values was carried out in accordance with EEC Directive 79/831 Annex V.A8 by HPLC (High Performance Liquid Chromatography) on a reversed-phase column (C18). […] Mass detection is effected by means of an […] system. ^b) Note regarding the determination of the retention time and mass detection: The stated retention times were determined on a reversed-phase column (C18) Shimadzu LCMS 2020; 50*3.0 Shimadzu shim-pack XR-ODS 2.2 micron; mobile phase A: water (0.05% TFA); mobile phase B: acetonitrile; linear gradient from 5% acetonitrile to 95% acetonitrile in 6.00 min, then 95% acetonitrile for a further 1.1 min; oven temperature 40° C.; flow rate: 1.0 ml/min. ^c) Note regarding the determination of the retention time and mass detection: Instrument: Waters ACQUITY SQD UPLC system; column. Waters Acquity UPLC HSS T3 1.8μ 50×1 mm; mobile phase A: 1 l of water+0.25 ml of 99% strength formic acid, mobile phase B: 1 l of acetonitrile+0.25 ml of 99% strength formic acid; gradient: 0.0 min 90% A→1.2 min 5% A→2.0 min 5% A oven: 50° C.; flow rate: 0.40 ml/min; UV detection: 208-400 nm. ^d) Note regarding the determination of the retention time and mass detection: […] The determination of the given log P values was carried out in accordance with EEC Directive 79/831 Annex V.A8 by HPLC (High Performance Liquid Chromatography) on a reversed-phase column (C18). […] Mass detection is effected by means of an […] system.
For `CC(C)n1nc(-c2c(C(F)(F)F)c(C(F)(F)C(F)(F)F)nn2C)nc1-c1ccc(Cl)c(C(=O)NCc2ccccc2)c1` [Ibh-9], the logP – broadly, the decadic logarithm of the partition coefficient of the neutral form, usually between octanol and water – is listed as 4.98.
With `Cn1nc(-c2ccc(Cl)c(C(=O)NCc3ccccc3)c2)nc1-c1c(C(F)(F)F)c(C(F)(F)C(F)(F)F)nn1C` [Ibg-10], the lipophilicity (logP) was 4.43.
Regarding `Cn1nc(-c2c(C(F)(F)F)c(C(F)(F)C(F)(F)F)nn2C)nc1-c1cccc(C(=O)NCc2ccccc2)c1` [Ibh-2, N-benzyl-3-{1-methyl-3-[1-methyl-3-(pentafluoroethyl)-4-(trifluoromethyl)-1H-pyrazol-5-yl]-1H-1,2,4-triazol-5-yl}benzamide], the chromatographic logP – broadly, lipophilicity estimated from chromatographic retention – was determined as 4.16.
In turn, `Cn1nc(-c2c(C(F)(F)F)c(C(F)(F)C(F)(F)F)nn2C)nc1-c1ccc(Cl)c(C(=O)Nc2ccccc2)c1` [Ibh-14] registered a logP of 4.42.
`Cn1nc(C(F)(F)C(F)(F)F)c(C(F)(F)F)c1-c1nc(-c2ccc(Cl)c(C(=O)NCc3ccccc3)c2)ns1` [Ibd-1] gave a logP of 5.00.
`CC(C)n1nc(-c2ccc(Cl)c(C(=O)Nc3ccccc3)c2)nc1-c1c(C(F)(F)F)c(C(F)(F)C(F)(F)F)nn1C` [Ibg-11] displayed a logP of 5.13.
Turning to `Cn1nc(C(F)(F)C(F)(F)F)c(C(F)(F)F)c1-c1ncc(-c2cccc(C(N)=O)c2)s1` [Iaq-2], the logP was 3.38.
As to `CN(C(=O)c1cccc(-c2cc(-c3c(C(F)(F)F)c(C(F)(F)C(F)(F)F)nn3C)n(C)n2)c1)C1CC1` [Iaw-1, N-cyclopropyl-3-[2,2′-dimethyl-5′-(pentafluoroethyl)-4′-(trifluoromethyl)-2H,2′H-3,3′-bipyrazol-5-yl]-N-methylbenzamide], the chromatographic logP amounted to 3.94.
Turning to `CCn1nc(-c2c(C(F)(F)F)c(C(F)(F)C(F)(F)F)nn2C)nc1-c1ccc(Cl)c(C(=O)Nc2ccccc2)c1` [Ibh-13], the logP is 4.73.
On to `Cn1nc(C(F)(F)C(F)(F)F)c(C(F)(F)F)c1-c1nc(-c2ccc(Cl)c(C(=O)Nc3ccc(F)cc3)c2)ns1` [Ibd-2], for which the logP is 5.17.
On to `Cn1nc(C(F)(F)C(F)(F)F)c(C(F)(F)F)c1-c1nnc(-c2ccc(Cl)c(C(=O)NC3CC3)c2)[nH]1` [Ibi-3], for which the logP worked out at 3.40.
The same measure, in the same setting: to `Cn1nc(C(F)(F)C(F)(F)F)c(C(F)(F)F)c1-c1nc(-c2cccc(C(=O)NCC(F)(F)F)c2)n[nH]1` [Ibg-3] belongs 3.54; to `CC(C)n1nc(-c2c(C(F)(F)F)c(C(F)(F)C(F)(F)F)nn2C)nc1-c1ccc(Cl)c(C(=O)NCC(F)(F)F)c1` [Ibh-7], 4.68.
`Cn1nc(-c2ccc(Cl)c(C(=O)NCC(F)(F)F)c2)nc1-c1c(C(F)(F)F)c(C(F)(F)C(F)(F)F)nn1C` [Ibg-4] came in with a lipophilicity (logP) of 4.14.
With `Cn1nc(C(F)(F)C(F)(F)F)c(C(F)(F)F)c1-c1nc(-c2cccc(C(=O)NCc3ccccc3)c2)n[nH]1` [Ibg-1, N-benzyl-3-{5-[1-methyl-3-(pentafluoroethyl)-4-(trifluoromethyl)-1H-pyrazol-5-yl]-1H-1,2,4-triazol-3-yl}benzamide], the chromatographic logP stood at 3.8.
`Cn1nc(-c2cccc(C(=O)NCc3ccccc3)c2)nc1-c1c(C(F)(F)F)c(C(F)(F)C(F)(F)F)nn1C` [Ibg-15, N-benzyl-3-{1-methyl-5-[1-methyl-3-(pentafluoroethyl)-4-(trifluoromethyl)-1H-pyrazol-5-yl]-1H-1,2,4-triazol-3-yl}benzamide] displayed a chromatographic logP of 4.24.
Regarding `Cn1nc(-c2c(C(F)(F)F)c(C(F)(F)C(F)(F)F)nn2C)nc1-c1ccc(Cl)c(C(=O)NCc2ccccc2)c1` [Ibh-11], the logP is reported as 4.29.
`Cn1nc(C(F)(F)C(F)(F)F)c(C(F)(F)F)c1-c1nnc(-c2ccc(Cl)c(C(=O)NCc3ccccc3)c2)[nH]1` [Ibi-1] came in with a logP of 4.00.
Compound `Cn1nc(C(F)(F)C(F)(F)F)c(C(F)(F)F)c1-c1nc(-c2cccc(C(=O)NC3CC3)c2)n[nH]1` [Ibg-2] gave a lipophilicity (logP) of 3.24.
On the same count and under the same terms, under `CCn1nc(-c2ccc(Cl)c(C(=O)Nc3ccccc3)c2)nc1-c1c(C(F)(F)F)c(C(F)(F)C(F)(F)F)nn1C` [Ibg-12] stands 4.85.

For the origin of these results see US10047076B2, “Halogen-substituted compounds” (BAYER CROPSCIENCE AKTIENGESELLSCHAFT, priority 2014, dated 2018).
